Assay results reported in patent publication US11661398B2, “Cellular transport system for transferring a sulfonic acid construct carrying a cargo into the cytoplasm of a cell” (Scientist of Fortune, S.A., priority 2017, dated 2023).
Peptide text beside a SMILES is read from it.

Columns and labels:
[1] = tested on: TK090; assay: Complementation of NAD+ auxotrophic strain; type: cell-based, E. coli; conditions: for concentration needed to support growth as NAD+ source: TK090[pSsuABC, pPnGGT*]; for growth with compound as sole source of NAD+: spent MS minimal medium, 25 μM N-picolyl-sulfobutyramide, different plasmid combinations
Protocol: FIG. 27. Utilization of NAD^+ precursors. NAD^+ auxotrophic strain TK090 [pSsuABC; pPnGGT*] was grown in MS minimal medium containing 0.5% glucose, 1 mM MgSO4, 0.4 mM leucine, 0.5 mM IPTG, 100 ng ml^−1 aTc and varying concentrations of either 3-picolylamine (a) or nicotinic acid (b). […] Dots represent the average of three independent measurements with standard deviations shown as error bars.
Selection experiments with NAD^+ auxotrophic strains are prone to contamination with unwanted NAD^+ sources and therefore demand special preparation of the precultures and medium. For the precultures, all tested strains were incubated overnight in MS minimal medium supplemented with 0.5% glucose, 1 mM MgSO4, 0.4 mM L-leucine and 5 μM nicotinic acid. To guarantee complete consumption of nicotinic acid, precultures were then diluted 100-fold in MS minimal medium supplemented only with 0.5% glucose, 1 mM MgSO4 and 0.4 mM L-leucine, but no additional NAD^+ source. Following an overnight incubation period, NAD^+-deprived cells were washed twice in the same medium and used for growth assays.
To prepare the medium for final growth assays, MS minimal medium was supplemented with 0.5% glucose, 1 mM MgSO4, 0.4 mM L-leucine and 25 μM N-picolyl-sulfobutyramide (see below for description of synthesis). To remove all NAD^+ contaminants, the medium was inoculated overnight with strain TK090, which can utilize free NAD^+ precursors, but cannot take up or hydrolyze N-picolyl-sulfobutyramide due to the absence of SsuABC and PnGGT*. After an overnight incubation period, cells were separated from the medium by centrifugation and the supernatant was filtered using a Minisart 0.22 μm High Flow Syringe Filter (Sartorius, Goettingen, Germany). The filtered supernatant was then supplemented with the respective antibiotics and inducers and used for growth assays.

[2] = tested on: TK054; assay: Leucine auxotrophy complementation with peptide vector; type: cell-based, E. coli; conditions: 1 mM peptide, plasmid pACT3/6×His_PnGGT ΔN24, 0.5 mM IPTG, 37° C., 5 days or more
Protocol: (§1) LB Miller broth (Becton Dickinson, Sparks, Md., USA) was used as standard growth medium for bacterial cultures (Sambrook, 2001). For the preparation of competent cells, SOB medium was used (Hanahan, 1983). Unless stated otherwise, growth experiments in selective medium were carried out in M9 minimal medium (Sambrook, 2001) supplemented with 0.5% glucose, 1 μg mL^−1 thiamine, 0.5 mM IPTG and 1 mM alanyl-γ-glutamyl-leucine (>95% purity, custom synthesized by Pepscan, Lelystad, Netherlands). For growth experiments on solid medium Bacto Agar (Becton Dickinson) was added to a final concentration of 1.5%. Growth experiments in liquid medium were performed either in a Tecan Infinite 200 Pro plate reader (Tecan, Mannedorf, Switzerland) or in a Biolector Basic Microbiorector System (m2p-labs, Baesweiler, Germany). All growth experiments were performed at 37° C. […]
The possibility to express 6×His_PnGGT ΔN24 in the cytoplasm of E. coli and the enzyme's relaxed substrate specificity (Imaoka et al., 2010) opened up the possibility to selectively hydrolyze γ-glutamyl compounds within the cytoplasm. […] As a cargo, leucine was chosen, whose successful release could be easily detected by restoring growth to a leucine auxotrophic strain. […]

[3] = tested on: TK054 ΔpcnB; assay: as above; type: cell-based, E. coli; conditions: 1 mM peptide, 6×His_PnGGT ΔN24 expressed, IPTG present
Protocol: as §1
To verify that the beneficial effects to growth with Ala-γ-Glu-Leu were caused by activity reducing mutations in pcnB, the entire gene was removed from the unmutated leucine auxotrophic selection strain, resulting in strain TK054 ΔpcnB. On M9 minimal medium containing 0.5% glucose and 1 mM Ala-γ-Glu-Leu as the only source of leucine, no growth of this strain was detected if the inducer IPTG was omitted (FIG. 6a). […]

[4] = tested on: TK082; assay: In vivo hydrolysis of sulfobutanoyl-p-nitroanilide and sulfobutanoyl-AMC; type: cell-based, E. coli
Protocol: Strain TK082 was transformed with plasmids as indicated in the text and grown at 37° C. in MS minimal medium supplemented with 0.5% glucose, 1 mM MgSO4 and 0.4 mM L-leucine to an OD600 of 0.5. At that stage, the synthesis of PnGGT* and/or SsuABC was induced for 2 hours by adding 0.5 mM IPTG and 100 ng mL^−1 aTc. Following this synthesis period, cells were washed in the same medium to remove proteins that had been released into the medium by cell lysis. After an additional centrifugation step, cells were resuspended in MS minimal medium supplemented with 0.5% glucose, 1 mM MgSO4, 0.4 mM L-leucine, 0.5 mM IPTG, 100 ng mL^−1 aTc and 0.5 mM sulfobutanoyl-p-nitroanilide or sulfobutanoyl-AMC (see below for description of synthesis) and incubated in a Tecan Infinite 200 Pro plate reader at 37° C. To monitor cell density and the release of 4-nitroaniline, absorbance was constantly measured at 600 nm and 410 nm. The release of AMC was monitored by measuring the fluorescence at λex=350 nm and λem=450 nm. To determine the influence of competition for the sulfonate transporter SsuABC, different concentrations of pentanesulfonate (Sigma Aldrich) were added to the medium.

[5] = tested on: BW25113 ΔleuB (TK080); assay: Growth on different sulfur sources; type: cell-based, E. coli; conditions: 1 mM sulfur source, minimal medium, 0.5% glucose, 0.4 mM leucine
Protocol: FIG. 21: Growth of E. coli on sulfonates. Strains TK080 (a; BW25113 ΔleuB) and TK082 (b; BW25113 ΔleuB ΔssuEADCB ΔtauD) were grown in MS minimal medium supplemented with 0.5% glucose, 0.4 mM L-leucine, 1 mM MgCl2 and 1 mM of a sulfur source. TK080 was able to use the majority of the tested sulfur sources with a similar efficiency as sulfate. […] Dots represent the average of three independent measurements with standard deviations shown as error bars.
For the experiments relating to the sulfonate based synthetic transport system, unless stated otherwise, growth experiments in selective medium were carried out in sulfur free MS minimal medium (4 mM citric acid, 1 mM MgCl2, 20 mM NH4Cl, 50 mM KH2PO4 and 1×NTA mix (10 μM nitrilotriacetic acid, 3 μM CaCl2, 3 μM FeCl3, 1 μM MnCl2, 0.3 μM ZnCl2, 0.3 μM H3B3, 0.3 μM CrC3, 0.3 μM COCl2, 0.3 μM CuCl2, 0.3 μM Ni2C, 0.3 μM Na2MoO4, 0.3 μM Na2SeO3)) supplemented with 0.5% glucose. MgSO4 (1 mM), MgCl2 (1 mM), L-leucine (0.4 mM), IPTG (0.5 mM), aTc (100 ng mL-1), nicotinic acid (various concentrations), 3-picolylamine (various concentrations) and sulfonates (various concentrations) as indicated in the text. […] Synthesis schemes for sulfobutanoyl-p-nitroanilide and other sulfonates are given below.
The sulfonate transporters SsuABC and TauABC transport a wide variety of sulfonate compounds (Eichhorn et al., 2000) and can thus be exploited for the present synthetic transport system. As such, the uptake and utilization of sulfobutanoyl-L-leucine was assessed. The leucine auxotrophic strain BW25113 ΔleuB was tested for growth in minimal medium supplemented with 0.5% glucose, 0.4 mM leucine, 0.4 mM isoleucine and 1 mM of a sulfur-containing compound as the sole sulfur source.

[6] = tested on: TK088[pSsuABC]; assay: Growth of histidine auxotrophic strain in liquid medium; type: cell-based, E. coli; conditions: liquid MS minimal medium, 0.5 mM compound, pACT3 versus pPnGGT*
Protocol: FIG. 22: Identification of GGT* activity and refactoring of the ssuABC operon. (a) Cell free extracts of strain TK018 synthesizing either EcGGT, EcGGT D433N, PnGGT or PnGGT D405N were incubated with 2 mM of the substrates γ-glutamyl-p-nitroanilide or sulfobutanoyl-p-nitroanilide (5), respectively. The release of 4-nitroaniline was quantified by measuring the absorption at 410 nm. (b) Plasmid map of the three-dimensional RBS-library for refactoring the ssuABC operon using 144 RBS variants per gene. RBS library sequences are underlined. Arrows point towards the final RBS sequences observed in plasmid pSsuABC. […] (e) Growth of strain TK088[pSsuABC]transformed with the empty vector pACT3 (black circles) or plasmid pPnGGT* (white circles) in liquid MS minimal medium supplemented with 0.5% glucose, 1 mM MgSO4, 0.4 mM L-leucine, 0.5 mM IPTG, 100 ng ml^−1 aTc and 0.5 mM sulfobutanoyl-L-histidine. Bars and dots from panels (a), (d) and (e) represent the average of three independent measurements with standard deviations shown as error bars. […]

[7] = substrate: CC(C)C[C@H](NC(=O)CCCS(=O)(=O)O)C(=O)O; assay: purified protein, by the assay type; conditions: other: kinetic studies cited in Example 11, conditions not given

`NCc1cccnc1` [3-picolylamine] was tested, and the “concentration necessary to complement the NAD+ auxotrophy compared to nicotinic acid” value ([1]; MS minimal medium) was 500 to 1000 fold, the “concentration needed to support growth as NAD+ source” value ([1]; MS minimal medium) was “above 50 μM” and the “growth with compound as sole source of NAD+” value [1] was “no growth was observed”.

With `CC(C)C[C@H](NC(=O)CC[C@H](NC(=O)[C@H](C)N)C(=O)O)C(=O)O` [Ala-γ-Glu-Leu, alanyl-γ-glutamyl-leucine] (HELM PEPTIDE1{A.[gGlu].L}$$$$V2.0) the “growth with peptide as sole source of leucine” value [2] was “poor growth” and the “growth with peptide as sole source of leucine” value [3] was “grew rapidly”.

In the case of `O=C(CCCS(=O)(=O)[O-])NCc1cccnc1.[Na+]` [N-picolyl-sulfobutyramide, N-(3-Pyridinylmethyl)sulfobutyramide sodium salt], the “growth with compound as sole source of NAD+” value [1] is reported as “only observed when both the sulfonate transporter SsuABC and PnGGT* were synthesized simultaneously”.

In the case of `O=C(O)c1cccnc1` [nicotinic acid], the “concentration needed to support growth as NAD+ source” value ([1]; MS minimal medium) is reported as “sub-micromolar concentrations”.

With `CCCCCS(=O)(=O)O` [pentanesulfonate, reference compound] the “effect of competitor on release of 4-nitroaniline from 0.5 mM sulfobutanoyl-p-nitroanilide” value ([4]; TK082[pSsuABC, pPnGGT*]) was “sufficient to slow down the release of 4-nitroaniline” and the “effect of competitor on release of AMC from 0.5 mM sulfobutanoyl-AMC” value ([4]; TK082[pSsuABC, pPnGGT*]) was “sufficient to slow down the release of AMC in the presence of SsuABC”.

With `Cc1cc(=O)oc2cc(NC(=O)CCCS(=O)(=O)O)ccc12` [sulfobutanoyl-AMC, N-(4-Methyl-2-oxo-2H-1-benzopyran-7-yl)sulfobutyramide] the “growth with compound as sole sulfur source” value [5] was “utilized with a lower efficiency” and the “in vivo release of AMC from the compound” value ([4]; 0.5 mM compound, different plasmid combinations) was “some release of the dye was detected in a strain expressing only PnGGT*”.

For `O=C(CCCS(=O)(=O)O)N[C@@H](Cc1c[nH]cn1)C(=O)O` [sulfobutanoyl-L-histidine], the “growth with compound as sole sulfur source” value [5] was “comparable efficiencies”, the “growth with compound as sole histidine source” value [6] was “Entirely equivalent results” and the “growth with compound as sole histidine source” value ([6]; listed as sulfubutanoyl-L-histidine) was “grew significantly faster and to higher cell densities”.

B1: PnGGT ΔN24 D405N (Pseudomonas nitroreducens; D405N) (protein)
chain: MRGSHHHHHHGSACELTLDGGAVAAPDQYGAKVAAEILKKGGNAVDAAVATAFTLAVTYPEAGNIGGGGFMTLYVDGKPYFLDYREIAPKAATKTMYLNEKGEVIENLSLVGAKAAGVPGTVMGLWEAHQRFGKLKWSELLTPAIGYAQTGFKVADQQYQYRQDAIALFNGKTNFGDYFGTMKPGEVFKQPELAKTLERIADKGPDDFYKGETAKLLIAQMKQDGGLITSDDLVDYQAKWREPMRIDWQGNTLYTAPLPSSGGIALAQLIGIKEQRAADFKGVELNSAKYIHLLSEIEKRVFADRADYLGDPQFSKVPVAQLTDPKYIAKRAGEVNPDAISATEKVRPGLEPHQTTHFSIVDKDGNAVSNTYTLNWDFGSGVVVKGAGFLLNDEMDNFSSKPGVANAFGVVGSDANAIEPGKRMLSSMSPSIVTRDGHVSLVLGTPGGSRIFTSIFQVLNNVYDFHLPLEKAVAAQRVHHQLLPKDTIYYDAYAPLPGKVADELKAMGYTLEDQGWNMGDIQAIRVNGKALETASDPRGRGVGMVVKP
B1 showed a Km [7] of 734 µM.
